{
  "source": "PubChem BioAssay AID602236",
  "about": "(The Scripps Research Institute Molecular Screening Center, 2012)",
  "note": "Calls of active or inactive are those of the source.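 The calls were made as follows: active = IC50 of 10 µM or lower; inactive = IC50 above 10 µM.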",
  "data": [
    {"tested_on": "HEK-293 Gal4-VP16 UAS luciferase reporter, luminescence", "assay": "GAL4-VP16 reporter repression curves – cell-based, luminescence, high throughput, SRC1 series, counter-screen for SRC1 inhibitor project, dose response (AID 602236);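 also: inhibitor potency where hits lower luciferase light from Gal4-VP16 transactivation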", "values": [
      {"smiles": "CN(C)c1ccc(/C=C/c2nc3ccccc3s2)cc1", "IC50": "19.8 µM (inactive)"},
      {"smiles": "CCCS(=O)(=O)c1c(S(=O)(=O)CCC)c2c(C)cccn2c1C(=O)N/N=C/c1cc(O)cc(O)c1", "IC50": "5 µM"},
      {"smiles": "Cc1ccc(NC(=O)CCC(=O)N/N=C/c2ccc(O)cc2O)cc1", "IC50": "23 µM (inactive)"},
      {"smiles": "COc1ccc2c(c1)-c1c(ssc1=S)C(C)(C)N2C(=O)CSC1=NCCS1", "IC50": "20.6 µM (inactive)"},
      {"smiles": "Cc1cccn2c(=O)c3cc(C(=O)NCCN4CCOCC4)c(=N)n(Cc4cccnc4)c3nc12", "IC50": "13.5 µM (inactive)"},
      {"smiles": "CC(=O)/C(N=Nc1ccc2c(c1)OCCO2)=C(\\C)O", "IC50": "> 35.9 µM (inactive)"},
      {"smiles": "O=C(c1ccncc1)N(Cc1cc2ccccc2[nH]c1=O)C1CCCCC1", "IC50": "7.87 µM"},
      {"smiles": "Cc1c2ccncc2cc2c1[nH]c1ccccc12", "IC50": "6.48 µM"},
      {"smiles": "CC1CCCCN1c1ncnc2ccccc12", "note": "(stereo not given)", "IC50": "13.4 µM (inactive)"},
      {"smiles": "COc1cccc(NC(=O)CN(C)CC(=O)Nc2ccc(Cl)cc2[N+](=O)[O-])c1", "IC50": "20.3 µM (inactive)"},
      {"smiles": "Cc1ccc(O)c(C(=O)c2cnn(C(=O)COc3ccc(Cl)cc3)c2)c1", "IC50": "27.6 µM (inactive)"},
      {"smiles": "O=C(CCC(=O)Nc1ccc(Br)cc1)N/N=C/c1ccccc1O", "IC50": "4.9 µM"},
      {"smiles": "CC(NC(=O)COC(=O)c1cccs1)c1ccccc1", "note": "(stereo not given)", "IC50": "> 35.9 µM (inactive)"},
      {"smiles": "CN(c1ccc(C(=O)N2CCN(Cc3ccc4c(c3)OCO4)CC2)cc1)S(=O)(=O)c1ccccc1", "IC50": "13.5 µM (inactive)"},
      {"smiles": "CCn1c2ccccc2c2cnc(N=CN(C)C)c(C#N)c21", "IC50": "28.9 µM (inactive)"},
      {"smiles": "CCOc1ccccc1-n1c(SCC(=O)Nc2ccccc2C(=O)O)nc2ccccc2c1=O", "IC50": "> 35.9 µM (inactive)"},
      {"smiles": "CCOC(=O)CSc1cc(-c2ccccc2)nc2ncnn12", "IC50": "> 35.9 µM (inactive)"},
      {"smiles": "CCOC(=O)CC(=O)CSc1nccc(-c2cccnc2)n1", "IC50": "> 35.9 µM (inactive)"},
      {"smiles": "Fc1ccc(CSc2nnc(-c3ccncc3)o2)cc1", "IC50": "7.85 µM"},
      {"smiles": "Cc1ccc(N(Cc2cc(=O)[nH]c3ccccc23)C(=O)CCl)c(C)c1", "IC50": "6.66 µM"},
      {"smiles": "CCOc1ccc(/C=C2\\SC(=S)N(CCCC(=O)NCCCN3CCOCC3)C2=O)cc1", "IC50": "21.9 µM (inactive)"},
      {"smiles": "CCc1c(C)nc2c(C)cccc2c1SCCC#N", "IC50": "> 35.9 µM (inactive)"},
      {"smiles": "O=C(N/N=C/c1coc2ccc(Cl)cc2c1=O)c1ccc(O)cc1", "IC50": "> 35.9 µM (inactive)"},
      {"smiles": "CCCCC(=O)OCC(=O)C1(O)Cc2c(O)c3c(c(O)c2C(OC2CC(NC(=O)C(F)(F)F)C(O)C(C)O2)C1)C(=O)c1c(OC)cccc1C3=O", "note": "(stereo not given)", "IC50": "6.82 µM"},
      {"smiles": "c1ccc(-c2nnc(-c3ccccn3)nc2NC2CCCCC2)cc1", "IC50": "> 35.9 µM (inactive)"},
      {"smiles": "CCn1c(Oc2ccc(F)cc2)nc2c1c(=O)n(C)c(=O)n2C", "IC50": "12.4 µM (inactive)"},
      {"smiles": "CCN1CCN(C(=S)c2ccc(-c3ccccc3)cc2)CC1", "IC50": "29.5 µM (inactive)"},
      {"smiles": "CC1(C)Cc2c(ccc3ccccc23)C(=O)N1", "IC50": "8.4 µM"},
      {"smiles": "Nc1ncccc1C(=O)OCC(=O)N1CCN(S(=O)(=O)c2ccc(Cl)cc2)CC1", "IC50": "12.8 µM (inactive)"},
      {"smiles": "N#Cc1c(-c2ccccc2)c(C#N)c2nc3ccccc3n2c1N", "IC50": "> 35.9 µM (inactive)"},
      {"smiles": "CNc1ncnc(Sc2nc(N)nc3nc[nH]c23)c1[N+](=O)[O-]", "IC50": "5.79 µM"},
      {"smiles": "Cc1nn(CC(=O)N2CCN(c3cccc(C(F)(F)F)c3)CC2)c(=O)c2cccn12", "IC50": "17.6 µM (inactive)"},
      {"smiles": "O=[N+]([O-])c1ccc(N(CCO)CCO)c2c1no[n+]2[O-]", "IC50": "7.87 µM"},
      {"smiles": "O=C(Nc1c(-c2ccccc2)[nH][nH]c1=O)c1cccc(C(F)(F)F)c1", "IC50": "> 35.8 µM (inactive)"},
      {"smiles": "O=C(Nc1nc(-c2ccccn2)cs1)c1cccc(S(=O)(=O)N2CCOCC2)c1", "IC50": "8.59 µM"},
      {"smiles": "COc1cccc(CNc2ncnc3ccc(-c4c(C)noc4C)cc23)c1", "IC50": "> 35.9 µM (inactive)"},
      {"smiles": "CC(C)(C)OC(=O)NCC(=O)Oc1cc2oc(=O)cc(-c3ccccc3)c2cc1Cl", "IC50": "21.8 µM (inactive)"},
      {"smiles": "COc1ccc(/C=C2\\CC/C(=C\\c3ccc(OC)c(OC)c3)C2=O)cc1OC", "IC50": "5.39 µM"},
      {"smiles": "O=C(CCl)N1N=C(c2ccco2)CC1c1cccs1", "note": "(stereo not given)", "IC50": "16 µM (inactive)"},
      {"smiles": "COc1cc(/C=C2\\SC(N)=NC2=O)cc(OC)c1", "IC50": "8.33 µM"}
    ]}
  ]
}
